According to patent publication US20240317722A1, “HETEROARYL-3-PIPERIDINEDIONE COMPOUND AND USE THEREOF” (Medshine Discovery Inc., priority 2021, published 2024):
Like-named read-outs stand apart in the source and are kept apart here.

Legend:
[1] = Pharmacokinetics of compounds in mice; assay type: in vivo, C57BL/6N mice; conditions: for bioavailability / clearance / Vd / half-life: male, C57BL/6N, mouse, plasma; for bioavailability: read-out: Bioavailability F; for Vd: read-out: Apparent volume of distribution; for half-life: read-out: Elimination half-life (converted)
Description: In this study, C57BL/6N male mice were selected as the test animals, and the LC/MS/MS method was used to quantitatively determine the drug concentration in the plasma of mice intravenously or orally administered the test compounds, so as to evaluate the pharmacokinetic profile of the test compounds in mice.
C57BL/6N mice (male, 20-30 g, 7-10 weeks old, Beijing Vital River).
A clear solution or suspension of the test compound was intravenously injected into C57BL/6N mice (fasted overnight) via tail or given to C57BL/6N mice (fasted overnight) by gavage. For intravenous injection administration, blood was collected from the cheek at 0 h (before administration) and 0.083, 0.25, 0.5, 1, 2, 4, 6, 8, and 24 h after administration. Each sample was collected about 0.05 mL. Heparin sodium was added to anti-coagulate. Plasma samples were collected and placed on wet ice, and centrifuged within 1 hour to separate the plasma (centrifugation conditions: 6000 g, 3 minutes, 2-8° C.). Blood samples were stored in a −80° C. refrigerator before analysis; For oral gavage administration, blood was collected from the cheek at 0 h (before administration) and 0.083, 0.25, 0.5, 1, 2, 4, 6, 8, 24 h after administration. Each sample was collected about 0.05 mL. Heparin sodium was added to anti-coagulate. Plasma samples were collected and placed on wet ice, and centrifuged within 1 hour to separate the plasma (centrifugation conditions: 6000 g, 3 minutes, 2-8° C.). Blood samples were stored in a −80° C. refrigerator before analysis. Through blood drug concentration data at different time points, Phoenix WinNonlin8.2.0 was used to calculate pharmacokinetic parameters, providing parameters such as AUC0-t, AUC0-∞, MRT0-∞, Cmax, Tmax, and T1/2, etc. and their mean and standard deviation.

GSPT1 [2] = molecular target: T1, GSPT1 (Homo sapiens, UniProt P15170+Q96SW2); assay: Target protein degradation in HEK293T-LgBiT_GSPT1-nHiBiT cells (HiBiT luminescence); assay type: cell-based; parameters: expressed in transfected cells; conditions: 16 to 18 hours; for Dmax: read-out: Max. DR (maximum degradation rate)
T1 sequence (P15170 whole entry): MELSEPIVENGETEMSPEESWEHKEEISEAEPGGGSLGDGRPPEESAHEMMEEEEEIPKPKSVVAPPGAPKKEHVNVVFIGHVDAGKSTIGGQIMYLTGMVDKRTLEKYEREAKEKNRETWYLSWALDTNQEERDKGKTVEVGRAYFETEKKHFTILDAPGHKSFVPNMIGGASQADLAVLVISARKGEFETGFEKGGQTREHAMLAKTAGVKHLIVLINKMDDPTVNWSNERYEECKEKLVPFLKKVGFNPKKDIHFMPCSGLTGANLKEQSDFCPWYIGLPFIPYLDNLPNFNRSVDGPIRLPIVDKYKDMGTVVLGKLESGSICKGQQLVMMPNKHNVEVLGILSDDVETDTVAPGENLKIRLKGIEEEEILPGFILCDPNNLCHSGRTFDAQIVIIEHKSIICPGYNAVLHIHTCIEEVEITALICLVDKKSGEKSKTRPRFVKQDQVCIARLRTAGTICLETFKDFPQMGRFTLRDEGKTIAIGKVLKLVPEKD
T1 sequence (Q96SW2 whole entry): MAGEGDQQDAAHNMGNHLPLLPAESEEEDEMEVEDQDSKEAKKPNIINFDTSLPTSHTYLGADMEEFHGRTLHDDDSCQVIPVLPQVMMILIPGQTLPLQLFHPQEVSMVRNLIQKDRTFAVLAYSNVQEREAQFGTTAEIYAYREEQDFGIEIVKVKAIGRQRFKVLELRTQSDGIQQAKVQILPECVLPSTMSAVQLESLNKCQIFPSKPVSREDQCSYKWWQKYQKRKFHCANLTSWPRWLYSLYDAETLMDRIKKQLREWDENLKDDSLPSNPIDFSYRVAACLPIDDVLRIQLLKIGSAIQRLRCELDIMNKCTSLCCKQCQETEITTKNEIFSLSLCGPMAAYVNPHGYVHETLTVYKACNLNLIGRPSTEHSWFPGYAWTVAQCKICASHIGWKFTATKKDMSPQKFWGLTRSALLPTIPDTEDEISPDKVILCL
T1 sequence (Q16531 whole entry partner): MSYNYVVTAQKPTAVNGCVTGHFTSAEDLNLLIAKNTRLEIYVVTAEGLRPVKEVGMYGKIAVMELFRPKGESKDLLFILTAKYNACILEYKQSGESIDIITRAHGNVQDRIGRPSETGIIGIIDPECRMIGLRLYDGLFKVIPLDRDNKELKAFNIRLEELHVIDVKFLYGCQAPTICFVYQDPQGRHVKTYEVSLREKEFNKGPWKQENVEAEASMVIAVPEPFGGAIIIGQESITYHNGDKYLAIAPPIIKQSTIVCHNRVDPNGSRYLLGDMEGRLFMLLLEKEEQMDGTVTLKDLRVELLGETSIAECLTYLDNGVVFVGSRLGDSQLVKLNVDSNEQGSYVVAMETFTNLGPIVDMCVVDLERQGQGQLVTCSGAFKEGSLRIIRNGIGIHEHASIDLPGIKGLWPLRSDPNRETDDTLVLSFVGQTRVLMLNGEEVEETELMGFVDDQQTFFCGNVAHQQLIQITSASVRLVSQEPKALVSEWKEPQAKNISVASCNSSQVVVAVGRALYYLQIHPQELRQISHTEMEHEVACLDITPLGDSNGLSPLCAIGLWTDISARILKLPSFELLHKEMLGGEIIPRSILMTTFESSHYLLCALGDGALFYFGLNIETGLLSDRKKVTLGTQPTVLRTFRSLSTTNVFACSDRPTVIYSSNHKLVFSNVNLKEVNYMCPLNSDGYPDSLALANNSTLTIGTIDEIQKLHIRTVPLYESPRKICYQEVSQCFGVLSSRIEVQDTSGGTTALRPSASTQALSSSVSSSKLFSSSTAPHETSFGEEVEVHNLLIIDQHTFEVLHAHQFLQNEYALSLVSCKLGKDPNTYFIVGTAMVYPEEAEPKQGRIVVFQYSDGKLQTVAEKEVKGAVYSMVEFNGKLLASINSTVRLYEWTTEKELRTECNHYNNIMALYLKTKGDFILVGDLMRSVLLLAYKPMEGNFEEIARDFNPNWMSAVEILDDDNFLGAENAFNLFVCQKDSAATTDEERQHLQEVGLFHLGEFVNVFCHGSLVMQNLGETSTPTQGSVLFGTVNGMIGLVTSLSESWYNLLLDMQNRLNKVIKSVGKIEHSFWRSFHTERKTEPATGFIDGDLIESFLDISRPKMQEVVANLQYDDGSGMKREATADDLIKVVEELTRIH
Method: This assay was performed to detect the degradation effect of the test compound on the target protein GSPT1 in HEK293T-LgBiT cells.
• 1. Preparation of compounds • (1). Dissolving the powder of the test compound with DMSO to 10 mM as the storage concentration, and using a pipette to manually draw 9 μL of 10 mM or 3 mM test compound to columns 1 and 13 of a LDV plate; • (2). Using multidrop Combi to add 6 μL of DMSO to columns 2-12 and 14-24; • (3). Using Bravo to dilute the test compound 3 times (3 μL+6 μL) from columns 1 to 11 and 13 to 23; • (4). According to the layout of the plate, using Echo to transfer 25 nL of compound solution (columns 1-24 of the LDV plate) to the assay plate; • (5). Using Echo to transfer 25 nL of 1 mM positive control solution to the assay plate as a 100% degradation control (i.e. LC, HPE), and to transfer 25 nL of DMSO to the assay plate as a 0% control (i.e. HC, ZPE). • 2. Cell plating • (1). Discarding the cell culture medium, and washing the cells once with DPBS; then the cells were trypsinized, counted, and used to prepare a cell suspension of 4×10^5 cells/mL; • (2). Using MultiDrop Combi to add 25 μL/well of cell suspension at medium speed to the assay plate containing the test compound; • (3). Putting the assay plate containing cells back into the incubator and culturing it at 37° C. and 5% CO2 for 16 to 18 hours.
• (1). Using MultiDrop Combi to add 25 μL/well of detection reagent (NanoGlo lysis solution+substrate+LgBit protein) to the assay plate at high speed, and shaking for 10 minutes; • (2). Centrifuging at 2000 rpm×1 min to remove bubbles; • (3). Reading the plate using Envision, US Luminescence detection method.
The following formula was used to calculate the degradation rate (DR) of the test compound: DR (%)=(RLU of vehicle control−RLU of compound)/(RLU of vehicle control−RLU of positive control)*100%, wherein the vehicle control was a blank control. The degradation rates of compounds at different concentrations were calculated in Excel, and then XLFit software was used to obtain inhibition curves and to calculate relevant parameters, including the minimum degradation rate, maximum degradation rate and DC50.

MDA-MB-231 = assay: Anti-proliferative effect in MDA-MB-231 (CellTiter-Glo); assay type: cell-based, human; conditions: MDA-MB-231, 3 days; for IC50: Homo sapiens, 72 h
Method: (§1) This assay studied the inhibitory effect of the compounds on cell proliferation by detecting the effect of the test compounds on the in vitro activity of tumor cells MV4-11 and MDA-MB-231.
(§2) The tumor cell lines were cultured in an incubator at 37° C., 5% CO2 or 0% CO2according to the above culture conditions. The cells were periodically passaged, and cells in logarithmic growth phase were taken for plating. • 2. Cell plating • (1). Cells were stained with trypan blue and viable cells were counted. • (2).
(§3) • (3). 90 μL of cell suspension was added to each well of the culture plate, and culture medium without cells was added to the blank control well. • (4). The plate was incubated overnight in an incubator at 37° C., 5% CO2 or 0% CO2, and 100% relative humidity. • 3. Preparation of a compound storage plate
(§4) Preparation of a 400× compound storage plate: The compounds were diluted with DMSO in a gradient from the highest concentration to the lowest concentration. The plates were prepared freshly at each time for use. • 4. Preparation of 10× compound working solution and treatment of cells with compounds • (1). Preparation of 10× compound working solution: compound or DMSO was added, and the well content was mixed to uniform by aspiration and expelling with pipette. 78 μL of cell culture medium was added to a 96-well plate with a V-shaped bottom. 2 μL of the compound from the 400× compound storage plate was added to the cell culture medium in the 96-well plate. 2 μL of DMSO was added to the vehicle control and the blank control. After adding compound or DMSO, the well content was mixed to uniform by aspiration and expelling with pipette. • (2). Dosing: 10 μL of 10× compound working solution was added to the cell culture plate. 10 μL of DMSO-cell culture mix solution was added to the vehicle control and blank control. • (3). The 96-well cell plate was placed back into the incubator and cultured for 3 days. • 5. CellTiter-Glo luminescence cell viability detection
The following steps were performed according to the instruction of Promega CellTiter-Glo luminescence cell viability detection kit (Promega-G7573). • (1). The CellTiter-Glo buffer was thawed and allowed to stand to reach room temperature; • (2). CellTiter-Glo substrate was allowed to stand to reach room temperature; • (3). 10 mL of CellTiter-Glo buffer was added to CellTiter-Glo substrate in a bottle to dissolve the substrate to formulate CellTiter-Glo working solution; • (4). The working solution was vortexed slowly for fully dissolution; • (5). The cell culture plates were taken out and allowed to stand for 30 minutes to equilibrate to room temperature; • (6). 50 μL (equal to half the volume of cell culture solution in each well) of Cell Titer-Glo working solution was added into each well. The cell plate was wrapped with aluminum foil to protect the cell plate from light; • (7). The culture plates were shaken on an orbital shaker for 2 minutes to induce cell lysis; • (8). The culture plates were left at room temperature for 10 minutes to stabilize the luminescence signal; • (9). The luminous signal was detected on the 2104 En Vision plate reader. • 6. Data analysis
The following formula was used to calculate the inhibition rate (IR) of the test compounds: IR (%)=(RLU of the vehicle control−RLU of the compound)/(RLU of the vehicle control−RLU of the blank control)*100%. The inhibition rates of the compounds at different concentrations were calculated in Excel, and then GraphPad Prism software was used to graph the inhibition curves and calculate the relevant parameters, including the minimum inhibition rate, maximum inhibition rate and IC50.

MV4-11 = assay: Anti-proliferative effect in MV4-11 (CellTiter-Glo); assay type: cell-based; conditions: MV4-11, 3 days; for IC50: Homo sapiens, 72 h
Method: as §1, §2, §3, §4
The following steps were performed according to the instruction of Promega CellTiter-Glo luminescence cell viability detection kit (Promega-G7573). • (1). The CellTiter-Glo buffer was thawed and allowed to stand to reach room temperature; • (2). CellTiter-Glo substrate was allowed to stand to reach room temperature; • (3). 10 mL of CellTiter-Glo buffer was added to CellTiter-Glo substrate in a bottle to dissolve the substrate to formulate CellTiter-Glo working solution; • (4). The working solution was vortexed slowly for fully dissolution; • (5). […] The culture plates were left at room temperature for 10 minutes to stabilize the luminescence signal; • (9). The luminous signal was detected on the 2104 En Vision plate reader. • 6. […]

GSPT1 [3] = molecular target: T1, GSPT1; assay: Effect of degrading GSPT1 protein (Western blot) in BxPC-3 cells; assay type: cell-based; parameters: endogenous in cells; host or cells: BxPC-3; conditions: 10 μM, 1 μM and 0.1 μM, 24 hours, Western blot (FIG. 1)
Method: BxPC-3 cells were treated with 10 μM, 1 μM and 0.1 μM of the test compound respectively for 24 hours. The cells were collected and lysed, denatured at 100° C. for 20 minutes, and then subjected to Western blot analysis. β-actin was used as the internal reference protein to detect the protein level of GSPT1. The main steps included: 1) Electrophoresis: Biorad precast gel was used to separate proteins using SDS-PAGE electrophoresis; 2) Transfer to membrane: Biorad rapid transfer to membrane system was used to transfer the proteins on the gel to PVDF membrane; 3) Blocking: the PVDF membrane with Western blotting was placed into an antibody incubation box, and blocking solution was added to completely cover the PVDF membrane for incubation at room temperature for 1 hour; 4) Incubation of the primary antibody: the above PVDF membrane was covered with GSPT1 antibody diluent, and incubated on a shaker at 4° C. overnight, 5) Incubation of the secondary antibody: the membrane was washed three times with Wash buffer, and secondary antibody diluent (Anti-rabbit IgG, HRP-linked) was added for incubation on a shaker at room temperature for 1 hour; 5) Exposure: the membrane was washed three times with Wash buffer, and the band on the membrane was detected using chemiluminescence method (Clarity Western ECL Substrate).

[4] = administration by gavage, 10 mg/kg

SMILES | Area under the plasma concentration-time curve (0-inf) [1, 4] | Peak concentration [1, 4] | Time to peak [1, 4] | Area under the plasma concentration-time curve (0-inf) ([1]; intravenous injection, 2 mg/kg) | bioavailability ([1]; PO 10 mg/kg vs IV 2 mg/kg) | clearance ([1]; intravenous injection, 2 mg/kg) | Vd ([1]; intravenous injection, 2 mg/kg) | half-life ([1]; intravenous injection, 2 mg/kg) | DC50 (GSPT1 [2]) | Dmax (GSPT1 [2]) | Area under the plasma concentration-time curve (0-inf) ([1]; intravenous injection, 1 mg/kg) | bioavailability ([1]; PO 10 mg/kg vs IV 1 mg/kg) | clearance ([1]; intravenous injection, 1 mg/kg) | Vd ([1]; intravenous injection, 1 mg/kg) | half-life ([1]; intravenous injection, 1 mg/kg) | IC50 (MDA-MB-231) | Max. IR (maximum inhibition rate) (MDA-MB-231) | IC50 (MV4-11) | Max. IR (maximum inhibition rate) (MV4-11) | effect of promoting the degradation of GSPT1 protein (GSPT1 [3])
Cc1c(Cl)cc(NC(=O)NCc2ccc3c(C4CCC(=O)NC4=O)noc3c2)cc1OCCN1CCOCC1 (stereo not shown) [WX012] | 1.99 µM·h | 0.69 µM | 1.08 h | 6.45 µM·h | 6.18% | 9.5 mL/min/kg | 0.41 L/kg | 1.85 h | 1.18 nM | 99.8% | – | – | – | – | – | – | – | – | – | –
Cc1c(Cl)cc(NC(=O)NCc2ccc3c(C4CCC(=O)NC4=O)coc3c2)cc1OCCN1CCOCC1 (stereo not shown) [WX006] | 2.71 µM·h | 1.76 µM | 0.50 h | – | – | – | – | – | 1.94 nM | 99.9% | 1.90 µM·h | 14.2% | 15.8 mL/min/kg | 2.3 L/kg | 3.62 h | 4.7 nM | 80.3% | – | – | –
O=C(COc1cccc(-c2csc(N3CCOCC3)n2)c1)NCCCCCCC(=O)Nc1ccc2c(C3CCC(=O)NC3=O)coc2c1 (stereo not shown) [WX003] | – | – | – | – | – | – | – | – | – | – | – | – | – | – | – | 52.4 nM | 65.29% | 6 nM | 100.15% | –
Cc1ccc(NC(=O)NCc2ccc3occ(C4CCC(=O)NC4=O)c3c2)cc1Cl (stereo not shown) [WX001] | – | – | – | – | – | – | – | – | – | – | – | – | – | – | – | 57.2 nM | 69.41% | 30.5 nM | 99.95% | significant effect of promoting the degradation of GSPT1 protein
